According to PubChem BioAssay AID1996:
In brackets after ≈: the same amount, converted by molar mass.

Conditions: buffer; pH 7.4; 200.0 µM

| Structure (SMILES) | solubility kinetic [µg/mL] |
| --- | --- |
| O=C(Cc1ccccc1)N1CCN(CCCc2ccccc2)CC1.O=C(O)C(=O)O | > 61.9 |
| CNc1nc(C23CC4CC(CC(C4)C2)C3)cs1 | 13 (≈ 52.3 µM) |
| CC(NC(=O)C(=S)N1CCN(C)CC1)c1ccccc1 (stereo not drawn) | > 43.7 |
| O=C(CSc1nccn1-c1cccc(F)c1)NC1CCCC1 | > 47.9 |
| Cc1ccc(OCC(=O)Nc2ccc(S(=O)(=O)N3CCCC3)cc2)cc1 | 0.5 (≈ 1.34 µM) |
| O=C(CNC(=O)c1ccc(Cl)cc1)NC1CCCCC1 | 6.6 (≈ 22.4 µM) |
| Fc1ccccc1NC(=S)NCCc1ccc(Cl)cc1 | 39 (≈ 126 µM) |
| O=c1[nH]snc1N1CCOCC1 | > 28.1 |
| CCCCN(C(=O)C1CCCC1)C1CCS(=O)(=O)C1 (stereo not drawn) | > 43.1 |
| Cc1nnc(SCC(=O)NC2CC2)n1-c1ccccc1 | > 43.3 |
| NC(=Nc1ccc(Cl)cc1)c1ccccc1 | > 34.6 |
| O=C(NCCOc1ccc(Cl)cc1)C(=O)NCC1CCCO1 (stereo not drawn) | 33.6 (≈ 103 µM) |
| COc1cccc(C(=O)OCC(=O)NCCCc2ccccc2)c1 | 12.1 (≈ 37 µM) |
| O=C(NC1(C(F)(F)F)NC(=O)N(C2CCCCC2)C1=O)C1CC1 (stereo not drawn) | > 50 |
| COC(=O)c1sc(NC(=O)c2c(C)noc2C)nc1C | > 44.3 |
| Cc1ccc(CNC(=O)Cc2ccc(Br)cc2)cc1 | < 0.7 |
| CCc1ccc(OCCOC(=O)Nc2ccccc2)cc1 | < 0.6 |
| CNC(=O)CSc1nc(-c2ccccc2)c(-c2ccccc2)o1 | 3.3 (≈ 10.2 µM) |
| CSc1ncc(CN2CCCC(C(=O)c3cccc(Cl)c3)C2)cn1 (stereo not drawn) | 29 (≈ 80.1 µM) |
| O=C(Nc1cccc2ccccc12)N1CCN(c2ncccn2)CC1 | > 50 |
| Cc1nc(SCCOc2ccccc2F)[nH]c(=O)c1Cc1ccccc1 | 0.6 (≈ 1.62 µM) |

| Structure (SMILES) | solubility kinetic [µg/mL] |
| --- | --- |
| COc1ccccc1NC(=S)N(Cc1cccnc1)Cc1ccco1 | 48.3 (≈ 137 µM) |
| O=C(NCCN1CCCCC1)Nc1cccc(Cl)c1Cl | < 0.2 |
| CCN1CCN(c2oc(-c3ccco3)nc2C#N)CC1 | 35.9 (≈ 132 µM) |
| CCOC(=O)CNc1nc(Cl)nc(Nc2ccc(C)cc2)n1 | 0.5 (≈ 1.55 µM) |
| O=C(Nc1cccc2cccnc12)c1ccccc1Cl | 0.3 (≈ 1.06 µM) |
| NS(=O)(=O)c1ccc(NC(=O)Nc2cccc3ccccc23)cc1 | 2.1 (≈ 6.15 µM) |
| Cc1ccc(NC(=O)Cc2nc(COC(=O)c3c(F)cccc3Cl)cs2)cc1 | 7.5 (≈ 17.9 µM) |
| O=C(COC(=O)c1cc(S(=O)(=O)N2CCOCC2)ccc1F)NC1CC1 | 55.1 (≈ 143 µM) |
| Nc1ccccc1Nc1c(F)c(F)nc(F)c1Cl | 37.6 (≈ 137 µM) |
| CCn1c(CCCNC(=O)c2ccco2)nc2ccccc21 | 42.1 (≈ 142 µM) |
| Cc1ccccc1C(=O)NC(CC(C)C)C(=O)NCC(C)(C)N1CCOCC1 (stereo not drawn) | > 58.4 |
| Cc1ccc(S(=O)(=O)N2CCCCC2)cc1C(=O)NCc1ccc(S(N)(=O)=O)cc1 | 2.8 (≈ 6.2 µM) |
| Cn1c(SCC(=O)Nc2cccnc2Cl)nc2ccccc21 | 37.9 (≈ 114 µM) |
| O=C(NCc1ccco1)/C(=C\c1ccccc1)NC(=O)c1ccccc1 | 17.2 (≈ 49.7 µM) |
| COc1ccccc1N1CCN(C(=O)c2cccc(S(=O)(=O)Nc3ccccc3F)c2)CC1.Cl | > 75.9 |
| N#Cc1c(-c2ccccc2)oc(=O)c2ccccc12 | 1.2 (≈ 4.85 µM) |
| CCC(C(=O)Nc1ccc(Cl)cc1)N1CCCC1=O (stereo not drawn) | 41.3 (≈ 147 µM) |
| N#Cc1ccc(C(=O)Nc2cccc(NC(=O)c3ccco3)c2)c(F)c1 | 2 (≈ 5.73 µM) |
| CCN(Cc1ccccc1)C(=O)CSc1nncn1C | > 43.6 |
| COc1ccc(NC(=O)C(CC(=O)O)Cc2ccc(Cl)cc2)cc1 (stereo not drawn) | > 52.2 |
| O=C(NCc1nc2ccccc2[nH]1)c1ccccc1F | > 40.4 |

| Structure (SMILES) | solubility kinetic [µg/mL] |
| --- | --- |
| CC(C)OCCCNC(=O)NC(=O)c1ccc(Cl)cc1 | 18.3 (≈ 61.3 µM) |
| O=C(NC1CCN(C(=O)Nc2ccc(F)cc2)CC1)c1ccc(F)cc1 | 3.7 (≈ 10.3 µM) |
| COc1ccccc1CCNC(=O)c1csc2c1CCCC2 | 1 (≈ 3.17 µM) |
| O=C(NC1CCC1)C1CCC(=O)N(Cc2ccccc2F)C1 (stereo not drawn) | > 45.7 |
| C=CCn1c(-c2ccc(Cl)cc2)cnc1SC(C)C(=O)NC(N)=O (stereo not drawn) | 14.2 (≈ 38.9 µM) |
| O=C(Cc1ccc(O)cc1)N/N=C/c1cccnc1 | > 38.3 |
| Cc1cccc(NC(=O)Nc2ccc(Br)cc2)n1 | < 0.2 |
| O=C(COC(=O)COc1ccccc1F)Nc1cccc(S(=O)(=O)N2CCCCC2)c1 | 47.8 (≈ 106 µM) |
| Cc1ccc(C(=O)NCC(=O)OCc2c(F)cccc2Cl)s1 | 9.2 (≈ 26.9 µM) |
| O=C(O)c1csc(-c2ccccc2)n1 | 28.2 (≈ 137 µM) |
| Cc1cccc(/C=N/NC(=O)c2ccncc2)n1 | > 36 |
| CC(C)C1Cc2nc(Cl)c(C#N)cc2CO1 (stereo not drawn) | 24.8 (≈ 105 µM) |
| Fc1ccccc1OCCCCN1CCCCC1 | 27.7 (≈ 110 µM) |
| COc1ccccc1CNC(=O)COc1ccc2c(c1)CCC2 | 20.5 (≈ 65.8 µM) |
| NC(=O)COc1c(-c2ccc(Br)o2)oc2ccccc2c1=O | 11.1 (≈ 30.5 µM) |
| Br.COC(=O)CN1C2=NCCCN2c2ccccc21 | > 48.9 |
| CCOc1ccc(NC(=O)c2nc(SCC)ncc2Cl)cc1 | < 0.2 |
| Cc1ccc(C(=O)OCC(=O)N2CCCC2)cc1 | 32.7 (≈ 132 µM) |
| Cc1ncc(CN2CCC(CO)(Cc3ccccc3)CC2)s1 | 45.5 (≈ 144 µM) |
| O=C(O)C1C2CCC(O2)C1C(=O)Nc1ccc(Cl)cc1F (stereo not drawn) | > 47.1 |

Other lines, results leading:

| solubility kinetic [µg/mL] | Structure (SMILES) |
| --- | --- |
| > 50.9 | COc1ccc(/C=C/C(=O)O)cc1S(=O)(=O)N1CCC(C)CC1 |
| 36.1 (≈ 145 µM) | COc1cccc(C(C)NC(=O)C2CCCO2)c1 (stereo not drawn) |
| 9.4 (≈ 27.5 µM) | N#C/C(=C\c1ccc(OCC(N)=O)cc1)S(=O)(=O)c1ccccc1 |
| 7.3 (≈ 18.6 µM) | NC(=O)c1ccc(NC(=O)COC(=O)/C=C/c2ccc(Br)o2)cc1 |
| 13.6 (≈ 41.4 µM) | NS(=O)(=O)c1ccc(NC2=CC(=O)C(=O)c3ccccc32)cc1 |
| > 47.6 | CCCNC(=O)c1oc2ccc3c(c2c1C)C(O)CC(C)(C)O3 (stereo not drawn) |
| > 45.2 | CN1C(=O)NC(c2ccccc2[N+](=O)[O-])C2=C1CCCC2=O (stereo not drawn) |
| < 0.2 | O=[N+]([O-])c1cccc2nc(-c3ccccc3)c(-c3ccccc3)nc12 |
| > 47.7 | O=C(O)C1CCC(N2C(=O)c3cccc([N+](=O)[O-])c3C2=O)CC1 (stereo not drawn) |
| > 49.8 | Cc1ccc(C)c(NC(=O)CN(C)C(=O)c2ccc(Cl)nc2)c1 |
| > 41.4 | Cc1cc(/C=C/C(=O)O)c(C)n1-c1ccc(Cl)cc1 |
| > 57.7 | COc1ccc(C2(C)NC(=O)N(CC(=O)NC3(C#N)CCCCC3)C2=O)cc1 (stereo not drawn) |
| > 65.5 | COc1ccc([N+](=O)[O-])cc1NS(=O)(=O)c1cccc(C(=O)OC2CCOC2=O)c1 (stereo not drawn) |
| 4.9 (≈ 14.5 µM) | COc1ccc(NCC(=O)n2c(C)c(C)c3ccccc32)cc1OC |
| 45.8 (≈ 149 µM) | CC(=O)c1ccc(S(=O)(=O)N2CCN(CC#N)CC2)cc1 |
| 7.2 (≈ 29.5 µM) | O=C(Nc1ccc([N+](=O)[O-])cn1)c1cccnc1 |
| > 44.4 | Cc1nn(CC(=O)NCc2ccccc2)c(=O)c2cccn12 |
| > 52.3 | CCOC(=O)CSc1nnc(CNC(=O)c2cccc(C)c2)n1C |
| 5 (≈ 20.8 µM) | O=[N+]([O-])c1ccc2nc(-c3ccccn3)[nH]c2c1 |

| solubility kinetic [µg/mL] | Structure (SMILES) |
| --- | --- |
| 34.6 (≈ 119 µM) | CNC(=O)C(C)N1c2cccc3cccc(c23)S1(=O)=O (stereo not drawn) |
| > 36.6 | O=C(O)Cn1cnc2c(oc3ccccc32)c1=O |
| < 0.7 | COc1cccc2cc(/C(=N/O)c3ccc(Br)cc3)oc12 |
| 31.9 (≈ 98.5 µM) | O=C(COC(=O)/C=C/c1ccccc1Cl)NCC1CCCO1 (stereo not drawn) |
| 26.3 (≈ 140 µM) | O/N=C/c1ccc2cccc(O)c2n1 |
| 36.5 | O=[N+]([O-])c1ccc(SCCc2cc[nH+]cc2)cc1.[Cl-] |
| > 47.3 | O=C(Nc1ccccc1C(=O)NC1CC1)c1ccc([N+](=O)[O-])o1 |
| 0.2 (≈ 0.624 µM) | CC(=O)c1cc(C#N)c(N2CCN(c3ccccc3)CC2)nc1C |
| 36 (≈ 127 µM) | COc1cccc(C(=O)NC(C)CCc2ccccc2)c1 (stereo not drawn) |
| > 45.7 | O=C(NC1CCC1)C1CCC(=O)N(Cc2cccc(F)c2)C1 (stereo not drawn) |
| 33.2 (≈ 102 µM) | COc1cc2c(cc1OC)CC(C(=O)NCc1ccccc1)NC2 (stereo not drawn) |
| > 46 | O=C(CN1C(=O)NC2(CCCCCC2)C1=O)c1cccs1 |
| 15.6 (≈ 54.1 µM) | O=C(Nc1ccc2[nH]c(=O)[nH]c2c1)c1ccc([N+](=O)[O-])o1 |
| 1.5 (≈ 5.63 µM) | Nc1nc(Cl)cc(Oc2ccc([N+](=O)[O-])cc2)n1 |
| > 46.9 | CC1CCN(C(=O)COC(=O)c2ccc3ccccc3n2)CC1 |
| > 42.8 | COCCCNS(=O)(=O)c1ccc2[nH]c(=O)[nH]c2c1 |
| < 0.4 | COc1ccc(NC(=O)C(=O)Nc2cccc3ccccc23)c(OC)c1 |
| > 47.8 | O=C(CN1C(=O)NC2(CCCCCC2)C1=O)c1ccc(F)cc1 |
| > 32.7 | Cc1ccc(C(=O)Nc2ncccc2O)o1 |

| solubility kinetic [µg/mL] | Structure (SMILES) |
| --- | --- |
| 39.9 (≈ 143 µM) | Cc1ccnc(NC(=O)c2cccc(OC(F)F)c2)n1 |
| 3.1 (≈ 8.87 µM) | COc1ccc(OC)c(NC(=O)CS(=O)(=O)Cc2ccccc2)c1 |
| > 61.6 | CS(=O)(=O)c1ccc(Cl)c(NC(=O)CNC(=O)c2ccc3c(c2)OCO3)c1 |
| 5.2 (≈ 11.8 µM) | O=C(CN1C(=O)NC2(CCCC2)C1=O)Nc1cc(C(F)(F)F)ccc1N1CCOCC1 |
| 0.3 (≈ 0.803 µM) | CCOC(=O)CNC(=O)c1sc(NC(=O)/C=C/c2ccccc2)nc1C |
| 17 (≈ 72.9 µM) | CC1=Nc2cc([N+](=O)[O-])ccc2NC(C)(C)C1 |
| > 44.3 | Cc1c(NC(=O)C(C)C)cccc1-c1nc2ncccc2o1 |
| 7.6 (≈ 29.7 µM) | O=C(Nc1cc(Cl)ccc1Cl)c1ccco1 |
| > 51.4 | Cc1cccc(CNC(=O)C2CCC(=O)N(C3CCCCCC3)C2)c1 (stereo not drawn) |
| 1.1 (≈ 3.69 µM) | CCCn1cnc2scc(-c3ccc(C)c(C)c3)c2c1=O |
| 46 (≈ 136 µM) | C=CCc1ccccc1OCC(O)CN1C(=O)c2ccccc2C1=O (stereo not drawn) |
| 35.7 (≈ 101 µM) | O=C(COC(=O)/C=C/c1ccc(C(F)(F)F)cc1)NCc1ccco1 |
| < 0.4 | CCOC(=O)C(=CNc1nc2ccc(C(=O)OCC)cc2s1)C(=O)OCC |
| 2.7 (≈ 8.51 µM) | CC1(C)C(=O)OC(/C=C/c2cccc([N+](=O)[O-])c2)C(C)(C)C1=O (stereo not drawn) |
| 23.1 (≈ 69.1 µM) | CCOC(=O)C1=C(COC(=O)/C=C/c2ccco2)NC(=O)NC1C (stereo not drawn) |
| 27.3 (≈ 98.4 µM) | CC(C)N1CCN(C(=O)c2ccc([N+](=O)[O-])cc2)CC1 |
| > 54.9 | CC1Cc2ccccc2N1NC(=O)c1ccc(Cl)c(S(N)(=O)=O)c1 (stereo not drawn) |
| 1.2 (≈ 3.82 µM) | CC1Oc2ccccc2N(CC(=O)Nc2ccccc2F)C1=O (stereo not drawn) |
